Measured values as given in ChEMBL document CHEMBL4813981, “Synthesis and in vitro antibacterial activity of new aminothiazole-oximepiperidone cephalosporins” (2021).
Values after ≈ are worked out from the molar mass of the structure shown.

Tests used:
Type in all cases: functional
Escherichia coli [1] = assay: Antibacterial activity against ESBLs negative Carbapenem-sensitive Escherichia coli 17-16 assessed as reduction in bacterial growth
Klebsiella pneumoniae [2] = assay: Antibacterial activity against Carbapenem- resistant Klebsiella pneumoniae KR 15-6 assessed as reduction in bacterial growth
Escherichia coli [3] = assay: Antibacterial activity against ESBLs positive Carbapenem-sensitive Escherichia coli 17-6 assessed as reduction in bacterial growth
Klebsiella pneumoniae [4] = assay: Antibacterial activity against Carbapenem- resistant Klebsiella pneumoniae KR 15-8 assessed as reduction in bacterial growth
Pseudomonas aeruginosa [5] = assay: Antibacterial activity against Carbapenem- sensitive Pseudomonas aeruginosa 17-21 assessed as reduction in bacterial growth
Klebsiella pneumoniae [6] = assay: Antibacterial activity against Carbapenem- sensitive Klebsiella pneumoniae 17-11 overexpressing extended spectrum beta-lactamases assessed as reduction in bacterial growth
Klebsiella pneumoniae [7] = assay: Antibacterial activity against Carbapenem- sensitive Klebsiella pneumoniae 17-14 overexpressing extended spectrum beta-lactamases assessed as reduction in bacterial growth
Pseudomonas aeruginosa [8] = assay: Antibacterial activity against Carbapenem- resistant Pseudomonas aeruginosa 17-5 assessed as reduction in bacterial growth
Pseudomonas aeruginosa [9] = assay: Antibacterial activity against Carbapenem- sensitive Pseudomonas aeruginosa 17-26 assessed as reduction in bacterial growth
Klebsiella pneumoniae [10] = assay: Antibacterial activity against Carbapenem- sensitive Klebsiella pneumoniae 17-4 overexpressing extended spectrum beta-lactamases assessed as reduction in bacterial growth
Pseudomonas aeruginosa [11] = assay: Antibacterial activity against Carbapenem- sensitive Pseudomonas aeruginosa 17-29 assessed as reduction in bacterial growth
Escherichia coli [12] = assay: Antibacterial activity against Escherichia coli ATCC 25922 assessed as reduction in bacterial growth
Enterobacter cloacae [13] = assay: Antibacterial activity against Enterobacter cloacae 17-2 assessed as reduction in bacterial growth
Klebsiella pneumoniae [14] = assay: Antibacterial activity against ESBLs negative Carbapenem-sensitive Klebsiella pneumoniae 17-16 assessed as reduction in bacterial growth
Escherichia coli [15] = assay: Antibacterial activity against ESBLs positive Carbapenem-sensitive Escherichia coli 17-22 assessed as reduction in bacterial growth
Klebsiella pneumoniae [16] = assay: Antibacterial activity against Carbapenem- sensitive Klebsiella pneumoniae 17-12 overexpressing extended spectrum beta-lactamases assessed as reduction in bacterial growth
Enterobacter cloacae [17] = assay: Antibacterial activity against Enterobacter cloacae 17-9 assessed as reduction in bacterial growth
Klebsiella pneumoniae [18] = assay: Antibacterial activity against Carbapenem- sensitive Klebsiella pneumoniae 17-15 overexpressing extended spectrum beta-lactamases assessed as reduction in bacterial growth
Enterobacter cloacae [19] = assay: Antibacterial activity against Enterobacter cloacae 17-10 assessed as reduction in bacterial growth
Klebsiella pneumoniae [20] = assay: Antibacterial activity against Carbapenem- resistant Klebsiella pneumoniae KR 15-13 assessed as reduction in bacterial growth
Acinetobacter baumannii [21] = assay: Antibacterial activity against Carbapenem- resistant Acinetobacter baumannii 17-11 assessed as reduction in bacterial growth
Escherichia coli [22] = assay: Antibacterial activity against ESBLs negative Carbapenem-sensitive Escherichia coli 17-1 assessed as reduction in bacterial growth
Klebsiella pneumoniae [23] = assay: Antibacterial activity against Carbapenem- sensitive Klebsiella pneumoniae 17-9 overexpressing extended spectrum beta-lactamases assessed as reduction in bacterial growth
Enterobacter cloacae [24] = assay: Antibacterial activity against Enterobacter cloacae 17-3 assessed as reduction in bacterial growth
Klebsiella aerogenes [25] = assay: Antibacterial activity against Enterobacter aerogenes 17-2 assessed as reduction in bacterial growth
Enterobacter cloacae [26] = assay: Antibacterial activity against Enterobacter cloacae 17-1 assessed as reduction in bacterial growth
Klebsiella pneumoniae [27] = assay: Antibacterial activity against Carbapenem- resistant Klebsiella pneumoniae KR 15-10 assessed as reduction in bacterial growth
Klebsiella pneumoniae [28] = assay: Antibacterial activity against Carbapenem- sensitive Klebsiella pneumoniae 17-6 overexpressing extended spectrum beta-lactamases assessed as reduction in bacterial growth
Escherichia coli [29] = assay: Antibacterial activity against ESBLs positive Carbapenem-sensitive Escherichia coli 17-10 assessed as reduction in bacterial growth
Pseudomonas aeruginosa [30] = assay: Antibacterial activity against Carbapenem- resistant Pseudomonas aeruginosa 17-1 assessed as reduction in bacterial growth
Acinetobacter baumannii [31] = assay: Antibacterial activity against Carbapenem- resistant Acinetobacter baumannii 17-6 assessed as reduction in bacterial growth
Escherichia coli [32] = assay: Antibacterial activity against ESBLs positive Carbapenem-sensitive Escherichia coli 17-8 assessed as reduction in bacterial growth
Acinetobacter baumannii [33] = assay: Antibacterial activity against Carbapenem- resistant Acinetobacter baumannii 17-2 assessed as reduction in bacterial growth
Escherichia coli [34] = assay: Antibacterial activity against ESBLs positive Carbapenem-sensitive Escherichia coli 17-3 assessed as reduction in bacterial growth
Klebsiella pneumoniae [35] = assay: Antibacterial activity against ESBLs negative Carbapenem-sensitive Klebsiella pneumonia 15-2 assessed as reduction in bacterial growth
Acinetobacter baumannii [36] = assay: Antibacterial activity against Carbapenem- resistant Acinetobacter baumannii 17-3 assessed as reduction in bacterial growth
Klebsiella pneumoniae [37] = assay: Antibacterial activity against Carbapenem- resistant Klebsiella pneumoniae KR 15-9 assessed as reduction in bacterial growth
Escherichia coli [38] = assay: Antibacterial activity against ESBLs positive Carbapenem-sensitive Escherichia coli 17-14 assessed as reduction in bacterial growth
Klebsiella aerogenes [39] = assay: Antibacterial activity against Enterobacter aerogenes 15-5 assessed as reduction in bacterial growth
Escherichia coli [40] = assay: Antibacterial activity against ESBLs positive Carbapenem-sensitive Escherichia coli 17-2 assessed as reduction in bacterial growth
Klebsiella pneumoniae [41] = assay: Antibacterial activity against Carbapenem- sensitive Klebsiella pneumoniae 17-10 overexpressing extended spectrum beta-lactamases assessed as reduction in bacterial growth
Escherichia coli [42] = assay: Antibacterial activity against ESBLs positive Carbapenem-sensitive Escherichia coli 17-12 assessed as reduction in bacterial growth
Klebsiella pneumoniae [43] = assay: Antibacterial activity against Carbapenem- resistant Klebsiella pneumoniae KR 15-7 assessed as reduction in bacterial growth
Acinetobacter baumannii [44] = assay: Antibacterial activity against Carbapenem- resistant Acinetobacter baumannii 17-9 assessed as reduction in bacterial growth
Escherichia coli [45] = assay: Antibacterial activity against ESBLs negative Carbapenem-sensitive Escherichia coli 17-9 assessed as reduction in bacterial growth
Klebsiella aerogenes [46] = assay: Antibacterial activity against Enterobacter aerogenes 17-3 assessed as reduction in bacterial growth
Enterobacter cloacae [47] = assay: Antibacterial activity against Enterobacter cloacae 17-5 assessed as reduction in bacterial growth
Klebsiella aerogenes [48] = assay: Antibacterial activity against Enterobacter aerogenes 17-1 assessed as reduction in bacterial growth
Escherichia coli [49] = assay: Antibacterial activity against ESBLs positive Carbapenem-sensitive Escherichia coli 17-15 assessed as reduction in bacterial growth
Pseudomonas aeruginosa [50] = assay: Antibacterial activity against Carbapenem- sensitive Pseudomonas aeruginosa 17-7 assessed as reduction in bacterial growth
Klebsiella aerogenes [51] = assay: Antibacterial activity against Enterobacter aerogenes 15-7 assessed as reduction in bacterial growth
Klebsiella pneumoniae [52] = assay: Antibacterial activity against Carbapenem- sensitive Klebsiella pneumoniae 17-3 overexpressing extended spectrum beta-lactamases assessed as reduction in bacterial growth
Pseudomonas aeruginosa [53] = assay: Antibacterial activity against Carbapenem- resistant Pseudomonas aeruginosa 17-8 assessed as reduction in bacterial growth
Escherichia coli [54] = assay: Antibacterial activity against ESBLs positive Carbapenem-sensitive Escherichia coli 17-21 assessed as reduction in bacterial growth

Structure (SMILES): Nc1nc(/C(=N/OCc2cc(=O)c(O)cn2O)C(=O)N[C@@H]2C(=O)N3C(C(=O)O)=CCS[C@H]23)cs1
- MIC (Escherichia coli [1]): 2 µg/mL (≈ 3.93 µM)
- MIC (Klebsiella pneumoniae [2]): 16 µg/mL (≈ 31.5 µM)
- MIC (Escherichia coli [3]): 32 µg/mL (≈ 62.9 µM)
- MIC (Klebsiella pneumoniae [4]): > 64 µg/mL
- MIC (Pseudomonas aeruginosa [5]): 4 µg/mL (≈ 7.87 µM)
- MIC (Klebsiella pneumoniae [6]): > 64 µg/mL
- MIC (Klebsiella pneumoniae [7]): 4 µg/mL (≈ 7.87 µM)
- MIC (Pseudomonas aeruginosa [8]): 64 µg/mL (≈ 126 µM)
- MIC (Pseudomonas aeruginosa [9]): 2 µg/mL (≈ 3.93 µM)
- MIC (Klebsiella pneumoniae [10]): > 64 µg/mL
- MIC (Pseudomonas aeruginosa [11]): 2 µg/mL (≈ 3.93 µM)
- MIC (Escherichia coli [12]): 0.5 µg/mL (≈ 0.983 µM)
- MIC (Enterobacter cloacae [13]): > 64 µg/mL
- MIC (Klebsiella pneumoniae [14]): 0.5 µg/mL (≈ 0.983 µM)
- MIC (Escherichia coli [15]): > 64 µg/mL
- MIC (Klebsiella pneumoniae [16]): 1 µg/mL (≈ 1.97 µM)
- MIC (Enterobacter cloacae [17]): 8 µg/mL (≈ 15.7 µM)
- MIC (Klebsiella pneumoniae [18]): 64 µg/mL (≈ 126 µM)
- MIC (Enterobacter cloacae [19]): 1 µg/mL (≈ 1.97 µM)
- MIC (Klebsiella pneumoniae [20]): > 64 µg/mL
- MIC (Acinetobacter baumannii [21]): > 64 µg/mL
- MIC (Escherichia coli [22]): 32 µg/mL (≈ 62.9 µM)
- MIC (Klebsiella pneumoniae [23]): 64 µg/mL (≈ 126 µM)
- MIC (Enterobacter cloacae [24]): 64 µg/mL (≈ 126 µM)
- MIC (Klebsiella aerogenes [25]): 64 µg/mL (≈ 126 µM)
- MIC (Enterobacter cloacae [26]): 1 µg/mL (≈ 1.97 µM)
- MIC (Klebsiella pneumoniae [27]): > 64 µg/mL
- MIC (Klebsiella pneumoniae [28]): 0.25 µg/mL (≈ 0.492 µM)
- MIC (Escherichia coli [29]): 4 µg/mL (≈ 7.87 µM)
- MIC (Pseudomonas aeruginosa [30]): 32 µg/mL (≈ 62.9 µM)
- MIC (Acinetobacter baumannii [31]): > 64 µg/mL
- MIC (Escherichia coli [32]): 16 µg/mL (≈ 31.5 µM)
- MIC (Acinetobacter baumannii [33]): > 64 µg/mL
- MIC (Escherichia coli [34]): 2 µg/mL (≈ 3.93 µM)
- MIC (Klebsiella pneumoniae [35]): 0.06 µg/mL (≈ 0.118 µM)
- MIC (Acinetobacter baumannii [36]): > 64 µg/mL
- MIC (Klebsiella pneumoniae [37]): > 64 µg/mL
- MIC (Escherichia coli [38]): 64 µg/mL (≈ 126 µM)
- MIC (Klebsiella aerogenes [39]): 8 µg/mL (≈ 15.7 µM)
- MIC (Escherichia coli [40]): 2 µg/mL (≈ 3.93 µM)
- MIC (Klebsiella pneumoniae [41]): > 64 µg/mL
- MIC (Escherichia coli [42]): 4 µg/mL (≈ 7.87 µM)
- MIC (Klebsiella pneumoniae [43]): > 64 µg/mL
- MIC (Acinetobacter baumannii [44]): > 64 µg/mL
- MIC (Escherichia coli [45]): 0.5 µg/mL (≈ 0.983 µM)
- MIC (Klebsiella aerogenes [46]): 2 µg/mL (≈ 3.93 µM)
- MIC (Enterobacter cloacae [47]): 32 µg/mL (≈ 62.9 µM)
- MIC (Klebsiella aerogenes [48]): 32 µg/mL (≈ 62.9 µM)
- MIC (Escherichia coli [49]): > 64 µg/mL
- MIC (Pseudomonas aeruginosa [50]): 0.25 µg/mL (≈ 0.492 µM)
- MIC (Klebsiella aerogenes [51]): 4 µg/mL (≈ 7.87 µM)
- MIC (Klebsiella pneumoniae [52]): > 64 µg/mL
- MIC (Pseudomonas aeruginosa [53]): 32 µg/mL (≈ 62.9 µM)
- MIC (Escherichia coli [54]): 64 µg/mL (≈ 126 µM)
